From patent US20030149075A1, “Zoniporide mesylate pharmaceutical compositions and processes for improving solubility of zoniporide” (Pfizer Inc., priority 2002, published 2003)
Where a name gives a salt, the structure may show the parent alone.

Assays:
[1] = Aqueous solubility of Zoniporide / Zoniporide mesylate, including pH adjustment with acids; format: physicochemical
Text: The most commercially feasible and the most pharmaceutically acceptable means, in this particular instance, for increasing solubility of Zoniporide was via pH adjustment.
Further additions of methanesulfonic acid further improved solubility with decreasing pH.
The phrase “increase (or increasing) the solubility” means increasing the solubility of Zoniporide or Zoniporide mesylate to a value greater than the solubility of Zoniporide mesylate in water (i.e. greater than about 18 mgA/mL).
(§1) The use of methanesulfonic acid to lower the pH of pharmaceutical formulations is non-traditional in the pharmaceutical field. […] Typically, the pH of pharmaceutical intravenous formulations is not lower than about pH of 3, because of injection-site toleration problems that are inherent in low pH formulations. […] Reducing the pH below about 2, however, can further increase the concentration of Zoniporide, but may cause injection site toleration issues.

[2] = Injection-site toleration of low-pH Zoniporide formulations; format: in vivo; conditions: formulations adjusted with methanesulfonic acid to as low as about pH 2
Text: as §1

change in solubility on pH adjustment with methanesulfonic acid ([1]; addition of methanesulfonic acid, further additions further improved solubility with decreasing pH) | change in solubility on pH adjustment with typical pH adjusters ([1]; hydrochloric acid, sulfuric acid, phosphoric acid, aqueous solution, pH range acceptable for infusion) | solubility of Zoniporide mesylate in water ([1]; in water, mgA/mL = mg/mL of active compound Zoniporide) | SMILES | injection-site toleration [2]
increase in solubility | no significant increase in solubility | – | N=C(N)NC(=O)c1cnn(-c2cccc3ncccc23)c1C1CC1 [Zoniporide, N-(5-cyclopropyl-1-quinolin-5-yl-1H-pyrazole-4-carbonyl)-guanidine] | without the expected injection-site toleration issues
– | – | about 18 mgA/mL | N=C(N)NC(=O)c1cnn(-c2cccc3ncccc23)c1C1CC1 [Zoniporide mesylate] | –
